Molecular target: T1, airway epithelial sodium currents (epithelial Na+ channel, ENaC) in canine bronchial epithelia (Canis lupus familiaris, UniProt A0A8I3MKE6+A0A8I3Q679+Q95165)
T1 construct: endogenous in cells; host or cells: primary canine bronchial epithelial cells cultured at air-liquid interface, mounted in Ussing chambers
T1 sequence (A0A8I3Q679 1-649): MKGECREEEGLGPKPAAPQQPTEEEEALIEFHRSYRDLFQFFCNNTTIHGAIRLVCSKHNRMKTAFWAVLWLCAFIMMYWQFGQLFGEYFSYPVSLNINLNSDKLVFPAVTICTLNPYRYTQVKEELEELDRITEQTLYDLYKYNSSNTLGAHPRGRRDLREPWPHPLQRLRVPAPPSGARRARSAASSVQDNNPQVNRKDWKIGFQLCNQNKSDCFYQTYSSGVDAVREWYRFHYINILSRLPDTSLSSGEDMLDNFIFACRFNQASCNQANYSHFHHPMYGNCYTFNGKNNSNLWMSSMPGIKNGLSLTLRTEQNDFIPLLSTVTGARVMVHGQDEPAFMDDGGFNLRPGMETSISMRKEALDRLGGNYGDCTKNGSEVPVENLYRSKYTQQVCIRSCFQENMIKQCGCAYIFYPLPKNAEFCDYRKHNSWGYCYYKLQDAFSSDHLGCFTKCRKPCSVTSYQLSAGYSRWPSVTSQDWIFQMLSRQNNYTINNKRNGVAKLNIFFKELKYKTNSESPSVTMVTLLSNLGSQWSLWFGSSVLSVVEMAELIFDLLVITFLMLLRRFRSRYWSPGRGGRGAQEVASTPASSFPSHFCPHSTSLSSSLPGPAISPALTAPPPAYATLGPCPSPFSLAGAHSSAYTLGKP
T1 sequence (Q95165 1-641): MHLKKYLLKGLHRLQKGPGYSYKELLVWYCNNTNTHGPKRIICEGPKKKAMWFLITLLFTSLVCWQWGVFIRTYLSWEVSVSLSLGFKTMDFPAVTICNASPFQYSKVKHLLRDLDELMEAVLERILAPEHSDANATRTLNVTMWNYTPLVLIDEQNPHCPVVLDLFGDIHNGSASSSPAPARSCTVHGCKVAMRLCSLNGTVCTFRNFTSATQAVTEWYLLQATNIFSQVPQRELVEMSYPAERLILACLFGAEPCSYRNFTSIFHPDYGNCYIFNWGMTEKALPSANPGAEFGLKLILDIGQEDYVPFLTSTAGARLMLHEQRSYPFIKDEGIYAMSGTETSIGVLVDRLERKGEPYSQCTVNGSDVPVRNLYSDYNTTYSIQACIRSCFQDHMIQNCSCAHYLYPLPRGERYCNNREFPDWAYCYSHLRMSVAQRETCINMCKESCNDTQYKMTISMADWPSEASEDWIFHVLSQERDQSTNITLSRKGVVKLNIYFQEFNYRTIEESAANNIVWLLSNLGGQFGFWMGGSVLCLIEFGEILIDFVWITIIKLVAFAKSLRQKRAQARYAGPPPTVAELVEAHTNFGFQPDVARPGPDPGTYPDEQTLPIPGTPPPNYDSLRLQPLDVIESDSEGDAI
T1 sequence (A0A8I3MKE6 1-646): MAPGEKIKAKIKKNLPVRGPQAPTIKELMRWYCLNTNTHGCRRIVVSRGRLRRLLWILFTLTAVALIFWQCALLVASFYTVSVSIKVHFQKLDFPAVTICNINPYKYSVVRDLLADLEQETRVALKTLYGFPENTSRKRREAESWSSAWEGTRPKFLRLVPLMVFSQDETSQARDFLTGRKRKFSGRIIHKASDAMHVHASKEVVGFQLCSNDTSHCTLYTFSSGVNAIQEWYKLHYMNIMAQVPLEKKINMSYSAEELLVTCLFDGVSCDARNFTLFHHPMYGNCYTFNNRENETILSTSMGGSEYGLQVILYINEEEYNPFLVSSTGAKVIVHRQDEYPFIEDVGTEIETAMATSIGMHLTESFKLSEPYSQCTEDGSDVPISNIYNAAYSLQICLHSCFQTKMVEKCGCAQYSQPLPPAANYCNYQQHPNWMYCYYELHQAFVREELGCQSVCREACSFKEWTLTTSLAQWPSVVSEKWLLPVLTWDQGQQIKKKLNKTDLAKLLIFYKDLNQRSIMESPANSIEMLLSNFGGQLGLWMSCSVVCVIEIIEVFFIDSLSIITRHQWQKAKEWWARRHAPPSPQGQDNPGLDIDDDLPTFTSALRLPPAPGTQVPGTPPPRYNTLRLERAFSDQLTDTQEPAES
Assay: Sodium channel blocking activity: potency in canine bronchial epithelia, short circuit current (ISC) in Ussing chambers
Format: cell-based
Settings: relative to amiloride as positive control
Method: One assay used to assess mechanism of action and/or potency of the compounds of the present invention involves the determination of lumenal drug inhibition of airway epithelial sodium currents measured under short circuit current (ISC) using airway epithelial monolayers mounted in Ussing chambers. Cells obtained from freshly excised human, dog, sheep or rodent airways are seeded onto porous 0.4 micron Snapwell™ Inserts (CoStar), cultured at air-liquid interface (ALI) conditions in hormonally defined media, and assayed for sodium transport activity (ISC) while bathed in Krebs Bicarbonate Ringer (KBR) in Using chambers. All test drug additions are to the lumenal bath with half-log dose addition protocols (from 1×10^−11 M to 3×10^−5M), and the cumulative change in ISC (inhibition) recorded. All drugs are prepared in dimethyl sulfoxide as stock solutions at a concentration of […] and stored at −20° C. Eight preparations are typically run in parallel; two preparations per run incorporate amiloride and/or benzamil as positive controls. After the maximal concentration ([…]) is administered, the lumenal bath is exchanged three times with fresh drug-free KBR solution, and the resultant ISCmeasured after each wash for approximately 5 minutes in duration. Reversibility is defined as the percent return to the baseline value for sodium current after the third wash. All data from the voltage clamps are collected via a computer interface and analyzed off-line.
Dose-effect relationships for all compounds are considered and analyzed by the Prism 3.0 program. IC50 values, maximal effective concentrations, and reversibility are calculated and compared to amiloride and benzamil as positive controls.
Amiloride was also tested in this assay as a positive control. The results for the compounds of the present invention are reported as fold-enhancement values relative to amiloride.

SMILES	Fold Enhancement Over Amiloride [fold]
Cl.N=C(NCCCCc1ccc(O)cc1O)NC(=O)c1nc(Cl)c(N)nc1N [drawing 26 Position 2,4 R H, 4-(2,4-Dihydroxyphenyl)butylamidino-3,5-diamino-6-chloropyrazinecarboxamide hydrochloride]	14.9
Cl.N=C(NCCCCc1ccc(O)c(O)c1)NC(=O)c1nc(Cl)c(N)nc1N [drawing 26 Position 3,4 R H, 4-(3,4-Dihydroxyphenyl)butylamidino-3,5-diamino-6-chloropyrazinecarboxamide hydrochloride]	15.1
Cl.N=C(NCCCCCc1ccc(O)cc1)NC(=O)c1nc(Cl)c(N)nc1N [drawing 27 n 5 Position of R 4 R OH, 5-(4-Hydroxyphenyl)pentylamidino-3,5-diamino-6-chloropyrazinecarboxamide hydrochloride]	14

Next, values leading:

Fold Enhancement Over Amiloride [fold]	SMILES
5.2	Cl.N=C(NCCCc1ccc(O)cc1)NC(=O)c1nc(Cl)c(N)nc1N [drawing 27 n 3 Position of R 4 R OH, 3-(4-Hydroxyphenyl)propylamidino-3,5-diamino-6-chloropyrazinecarboxamide hydrochloride]
50.3	Cl.N=C(NCCCCc1ccc(O)cc1)NC(=O)c1nc(Cl)c(N)nc1N [drawing 27 n 4 Position of R 4 R OH, 4-(4-hydroxyphenyl)butylamidino-3,5-diamino-6-chloropyrazinecarboxamide hydrochloride]
16.1	Br.N=C(NCCCOc1ccc(O)cc1)NC(=O)c1nc(Cl)c(N)nc1N [drawing 29 a CH2 b O R H, 4-(4-Hydroxyphenyl)-4-oxabutylamidino-3,5-diamino-6-chloropyrazinecarboxamide hydrobromide]
